Data from PubChem BioAssay (NCI).
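GI50 is the concentration that inhibits growth by half. TGI denotes the concentration required for complete inhibition of growth.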

What was measured:
Assay in all cases: NCI tumour cell line growth inhibition, 384-well format
SK-MEL-28 melanoma = tested on: SK-MEL-28 melanoma
786-0 renal = tested on: 786-0 renal
IGROV1 ovarian = tested on: IGROV1 ovarian
U251 glioblastoma = tested on: U251 glioblastoma
BT-549 breast = tested on: BT-549 breast
SNB-75 CNS = tested on: SNB-75 CNS
SF-539 CNS = tested on: SF-539 CNS
KM12 colon = tested on: KM12 colon
HOP-62 NSCLC = tested on: HOP-62 NSCLC
TK-10 renal = tested on: TK-10 renal
SK-MEL-5 melanoma = tested on: SK-MEL-5 melanoma
NCI-H322M lung = tested on: NCI-H322M lung
CAKI-1 renal = tested on: CAKI-1 renal
HCT-116 colon = tested on: HCT-116 colon
UO-31 renal = tested on: UO-31 renal
A549 NSCLC = tested on: A549 NSCLC
SW-620 colon = tested on: SW-620 colon
NCI-H23 lung = tested on: NCI-H23 lung
UACC-62 melanoma = tested on: UACC-62 melanoma
SF-268 CNS = tested on: SF-268 CNS
MDA-MB-231 breast = tested on: MDA-MB-231 breast
A498 renal = tested on: A498 renal
HCC-2998 colon = tested on: HCC-2998 colon
HOP-92 NSCLC = tested on: HOP-92 NSCLC
OVCAR-4 ovarian = tested on: OVCAR-4 ovarian
SNB-19 CNS = tested on: SNB-19 CNS
EKVX NSCLC = tested on: EKVX NSCLC
T-47D breast = tested on: T-47D breast
HCT-15 colon = tested on: HCT-15 colon
MCF7 breast = tested on: MCF7 breast
SF-295 CNS = tested on: SF-295 CNS
MALME-3M melanoma = tested on: MALME-3M melanoma
ACHN renal = tested on: ACHN renal
LOX IMVI melanoma = tested on: LOX IMVI melanoma
NCI/ADR-RES ovarian = tested on: NCI/ADR-RES ovarian
OVCAR-8 ovarian = tested on: OVCAR-8 ovarian
PC-3 prostate = tested on: PC-3 prostate
SK-OV-3 ovarian = tested on: SK-OV-3 ovarian
NCI-H226 lung = tested on: NCI-H226 lung

CN1CC[C@H](N(C)C(=O)N2CC(c3cc(F)ccc3F)=C[C@@]2(CO)c2ccccc2)[C@H](F)C1
GI50 (SK-MEL-28 melanoma): 0.646 µM | TGI (SK-MEL-28 melanoma): 19.5 µM | TGI (786-0 renal): 12.4 µM | GI50 (IGROV1 ovarian): 6.07 µM | TGI (IGROV1 ovarian): > 100 µM | TGI (U251 glioblastoma): 14.5 µM | TGI (BT-549 breast): 13.6 µM | TGI (SNB-75 CNS): 27.4 µM | TGI (SF-539 CNS): 11.6 µM | TGI (KM12 colon): 10.9 µM | TGI (HOP-62 NSCLC): 25.9 µM | GI50 (TK-10 renal): 4.89 µM | TGI (TK-10 renal): 35.3 µM | TGI (SK-MEL-5 melanoma): 1.07 µM | TGI (NCI-H322M lung): 55.6 µM | TGI (CAKI-1 renal): > 100 µM | TGI (HCT-116 colon): 14.6 µM | GI50 (UO-31 renal): 3.34 µM | TGI (UO-31 renal): 95.1 µM | TGI (A549 NSCLC): > 100 µM | TGI (SW-620 colon): > 100 µM | TGI (NCI-H23 lung): 0.0371 µM | TGI (UACC-62 melanoma): 16.5 µM | TGI (SF-268 CNS): 11.7 µM | TGI (MDA-MB-231 breast): > 100 µM | TGI (A498 renal): 13 µM | TGI (HCC-2998 colon): 13.3 µM | GI50 (HOP-92 NSCLC): 0.198 µM | TGI (HOP-92 NSCLC): 32.6 µM | GI50 (OVCAR-4 ovarian): 21.6 µM | TGI (OVCAR-4 ovarian): > 100 µM | TGI (SNB-19 CNS): 27.5 µM | TGI (EKVX NSCLC): 28.2 µM | TGI (T-47D breast): 43.1 µM | TGI (HCT-15 colon): 28 µM | TGI (MCF7 breast): 35.4 µM | TGI (SF-295 CNS): 1.28 µM | TGI (MALME-3M melanoma): 14.5 µM | GI50 (ACHN renal): 9.3 µM | TGI (ACHN renal): > 100 µM | TGI (LOX IMVI melanoma): 20 µM | TGI (NCI/ADR-RES ovarian): 0.0135 µM | TGI (OVCAR-8 ovarian): 11.4 µM | TGI (PC-3 prostate): 27.1 µM | TGI (SK-OV-3 ovarian): 26.8 µM | TGI (NCI-H226 lung): 8.16 µM
